Assay results: patent US10902592B2, “Analysis of images of biological material” (Q-linea AB, priority 2016, dated 2021)

What was measured:
Type in all cases: cell-based
P.aureginosa = test: Microscopy of P.aureginosa grown in presence of antibiotics (FIGS. 7e-g); conditions: for morphological change of the pathogen: P.aureginosa grown for three hours in presence of the antibiotic, microphotographs
From the text: (§1) FIGS. 7a to 7j show the effect of antibiotics on the morphology of various pathogens. The microphotographs in a) to d) show E. coli grown for three hours either a) in absence of any antibiotics, b) and c) in presence of the antibiotic ceftazidime in different concentrations, and d) or in presence of the antibiotic meropenem. It is clear that the morphological change is not only dependent on the type of antibiotics but is also dose dependent. […] The strain of E. coli shown in these Figures is meropenem sensitive. The microphotographs in e) to g) show P.aureginosa grown for three hours either e) in absence of any antibiotics, f) in presence of the antibiotic ceftazidime or g) in presence of the antibiotic meropenem. […] The P.aureginosa strain shown is meropenem sensitive. The microphotographs of h) to j) show P. mirabilis grown for three hours either h) in absence of any antibiotics, i) in presence of the antibiotic ceftazidime or j) in presence of the antibiotic meropenem. […] The P. mirabilis strain shown is meropenem sensitive.

E. coli = test: Microscopy of E. coli grown in presence of antibiotics (FIGS. 7a-d); conditions: for morphological change of the pathogen: E. coli grown for three hours in presence of the antibiotic, microphotographs
From the text: as §1

P. mirabilis = test: Microscopy of P. mirabilis grown in presence of antibiotics (FIGS. 7h-j); conditions: for morphological change of the pathogen: P. mirabilis grown for three hours in presence of the antibiotic, microphotographs
From the text: as §1

SMILES | morphological change of the pathogen (P.aureginosa) | morphological change of the pathogen (E. coli) | morphological change of the pathogen (P. mirabilis) | sensitivity of the strain shown to the antibiotic (P.aureginosa; P.aureginosa strain shown) | sensitivity of the strain shown to the antibiotic (E. coli; E. coli strain shown in the Figures) | sensitivity of the strain shown to the antibiotic (P. mirabilis; P. mirabilis strain shown)
CC(C)(O/N=C(\C(=O)N[C@@H]1C(=O)N2C(C(=O)[O-])=C(C[n+]3ccccc3)CS[C@H]12)c1csc(N)n1)C(=O)O [ceftazidime] | “cluster threads” instead of individual threads | thread-like change in morphology | a combination of “swelling” and threads |  |  | 
C[C@@H](O)[C@H]1C(=O)N2C(C(=O)O)=C(S[C@@H]3CN[C@H](C(=O)N(C)C)C3)[C@H](C)[C@H]12 [meropenem] | the same morphological change occurs | “swelling” of the pathogen | the same morphological change occurs | sensitive | sensitive | sensitive
